Article PMC6978316, “Development of chimeric peptides to facilitate the neutralisation of lipopolysaccharides during bactericidal targeting of multidrug-resistant Escherichia coli” (Communications Biology, 2020)
Like-named read-outs stand apart in the source and are kept apart here. Where a SMILES comes first, the peptide text is derived from it. Bridges are numbered along the chain shown (N, C = ends).

How the values were obtained:
[1] = system: IκBα; experiment: Western blotting of lung tissues, IκBα/β-actin; format: in vivo, mice; settings: for densitometric analysis of IκBα/β-actin ratio: LPS + substance, Mean; for effect on LPS-induced IκBα levels: lung tissue 8 h, LPS 13.5 mg per kg, western blotting
Procedure: (§1) Additionally, the mice were sacrificed at 8 h and the lung tissues were homogenized and suspended in […] HEPES buffer for 20 min according to standard procedures. After centrifugation at 4 °C for 20 min (12,000 rpm), the protein levels of supernatants were quantified using a Bradford protein assay kit. A total of 30 μg proteins were analyzed on an 8–12% sodium dodecyl sulfate-polyacrylamide gel electrophoresis (SDS-PAGE) gel and were immunoblotted onto PVDF membranes, followed by an incubation with the primary antibodies of p65, p-p65, extracellular signal-regulated kinase (ERK)1/2, p-ERK1/2, and IκBα overnight at 4 °C. After washing, the blots were incubated with the peroxidase conjugated goat-rabbit or goat-mouse antibodies. Relative protein expression levels were quantified by a densitometric measurement of chemiluminescence (ECL) reaction band. β-actin was used as the internal reference.

[2] = system: ERK1/2 phosphorylation; experiment: Western blotting of lung tissues, p-ERK1/2/ERK1/2; format: in vivo, mice; settings: for densitometric analysis of p-ERK1/2/ERK1/2 ratio: LPS + substance, Mean; for attenuation of ERK1/2 phosphorylation: lung tissue 8 h, LPS 13.5 mg per kg, western blotting, densitometry
Procedure: as §1

[3] = system: LPS-induced lung injury; experiment: Protection of lung tissues from LPS (histology); format: in vivo; settings: LPS-challenged mice, 0.25 μmol per kg
Procedure: The mice were treated with N6 (0.25 μmol per kg), A6 (0.25 μmol per kg), G6 (0.25 μmol per kg), and PMB (10 μmol per kg), respectively after the intraperitoneal injection of LPS at a concentration of LD100. The lung tissues were taken at 1 d and 6 d, respectively, washed with PBS and placed in 4% paraformaldehyde for 24 h at 4 °C. After washing with PBS, the tissues were dehydrated by a series of different concentrations of ethanol (75%, 85%, 90%, and 95%) and were immersed in xylene for paraffin embedding. After sectioning, the samples were stained with hematoxylin and were observed by a light microscope. The mice challenged with LPS and PBS served as the negative and blank control, respectively.

[4] = system: TNF-α, IL-6 and IL-10 in LPS-stimulated RAW 264.7 cells; experiment: Cytokines in LPS-stimulated macrophages (ELISA); format: cell-based, mouse; set-up: unit not given here
Procedure: Macrophages RAW 264.7 were incubated with LPS (0.1 and 1 μg per ml) that was dissolved in serum-free DMEM medium, and then were treated with A6, G6, N6, or PMB (20 μM) alone in 24-well plates (2.5 × 10^5 cells per well). The cells incubated with serum-free DMEM and LPS were used as a control. After treatment for 2 h, the supernatants were collected and assessed for TNF-α, IL-6, and IL-10 by using the ELISA kits in the Jiaxuan Biotech. Co. Ltd. (Beijing, China).
73 Supplementary Figure 15. Effects of SCPs on cytokines in RAW 264.7 ells. Cells were incubated with 0.1 μg per
74 ml (a) or 1 μg per ml (b) LPS and 20 μM A6, G6, N6 or PMB for 2 h. The levels of TNF-α, IL-6 and IL-10 in
75 supernatants were measured using ELISA. The data are given as the mean ± SD (n = 3 independent experiments).
76 Different lower case letters indicate a significant difference between two groups (p < 0.05).
(§2) (1 picture or pasted object on this page, not shown here)

[5] = system: E. coli LPS; experiment: BODIPY-TR-cadaverine (BC) displacement assay; format: binding, Escherichia coli; settings: 100 μM
Procedure: The affinity of SCPs (A6, G6, and N6) to E. coli LPS was detected by the fluorescent BC probe. The binding of fluorescent probe with LPS can cause fluorescence quenching. When peptides bind to LPS, BC probe can be replaced, which can result in an increase in fluorescence. Equal volumes of LPS (40 μg per ml) and BC probe (10 μM) in 50 mM Tris buffer (pH 7.4) were mixed and added into a black 96-well microtiter plate (180 μl mixture per well), followed by the addition of different concentrations of A6, G6, or N6 (20 μl per well). Ampicillin and PMB were used as the negative and positive control, respectively. Changes in fluorescence were measured by a fluorescence spectrophotometry at room temperature (excitation: 580 nm, emission: 620 nm) and the BC displacement rate was calculated.

[6] = system: binding of FITC-labeled LPS to RAW 264.7 cells; experiment: Binding of FITC-labeled LPS to macrophages (flow cytometry); format: cell-based, mouse; settings: FITC-LPS 100 μg per ml, 0.1 μM peptide 1 h
Procedure: Similarly, after an incubation with FITC-labeled LPS and washing with medium, cells were incubated with rhodamine-labeled A6 or G6 (0.1 μM) at 37 °C for 1 h. After washing again, the effects of peptides on the binding of FITC-labeled LPS to the cells were analyzed by CLSM and flow cytometry, respectively.

[7] = system: MDR E. coli CVCC195; experiment: Thermal stability, residual antibacterial activity (inhibition zone); format: physicochemical, Escherichia coli; settings: mean of n = 3
Procedure: The N6, A6, and G6 solutions were treated at different temperatures (20–100 °C) for 1 h, dissolved and incubated at different pH values (2–10) for 3 h, or incubated with trypsin or pepsin for 4 h. The inhibition zone diameters were measured after incubation at 37 °C for 18–24 h.

[8] = system: 1:1 mixture of E. coli CVCC195 and S. aureus ATCC43300; format: cell-based, Escherichia coli; Staphylococcus aureus; settings: Mean
Procedure: The selectivity of A6, G6, and N6 against Gram-negative and Gram-positive bacteria was determined using the mixed-culture bactericidal kinetics assay, as described in the Supplementary Information.
27 Supplementary Figure 6. Killing selectivity of peptides. A 1:1 mixture of E. coli (Ec) and S. aureus
28 (Sa) was treated with A6 (16 μg per ml), G6 (16 μg per ml) or N6 (2 μg per ml) for 1, 3 and 5 min,
29 respectively; survivors were counted in MH plates. The change in relative ratio of E. coli to S. aureus
30 (Ec/Sa) after treatment with A6, G6 or N6 is shown.
31 independent experiments).
as §2
102 Supplementary Methods
103 Mixed-culture bactericidal kinetics of SCPs-A6 and G6. The mid-exponential phage E. coli
104 CVCC195 and S. aureus ATCC43300 cultures were diluted to 2 × 10^5 CFU per ml, mixed (1:1) and
105 added into the 96-well plates. A6, G6 or N6 were added into each well of plates to final concentration
106 of 16 (A6 and G6) or 2 (N6) μg per ml in a 200-μl total volume. An aliquot was removed at 1, 3 and 5
107 min, respectively, and survivors were counted on MH solid plates1–3. […]

[9] = system: NF-κB p-p65 subunit; experiment: Western blotting of lung tissues, p-p65/p65; format: in vivo, mice; settings: for densitometric analysis of p-p65/p65 ratio: LPS + substance, Mean; for inhibition of LPS-induced translocation of the NF-κB p-p65 subunit: lung tissue 8 h, LPS 13.5 mg per kg, western blotting, densitometry
Procedure: as §1

[10] = RAW 264.7 cells incubated with 0.1 μg per ml LPS
[11] = RAW 264.7 cells incubated with 1 μg per ml LPS
[12] = 20℃ for 1 h, inhibition zone vs E. coli CVCC195 after 37 °C 18–24 h
[13] = 40℃ for 1 h, inhibition zone vs E. coli CVCC195
[14] = 60℃ for 1 h, inhibition zone vs E. coli CVCC195
[15] = 80℃ for 1 h, inhibition zone vs E. coli CVCC195
[16] = 100℃ for 1 h, inhibition zone vs E. coli CVCC195

| Compound | densitometric analysis of IκBα/β-actin ratio [1] | effect on LPS-induced IκBα levels [1] | densitometric analysis of p-ERK1/2/ERK1/2 ratio [2] | attenuation of ERK1/2 phosphorylation [2] | lung histology at 1 d [3] | lung histology at 6 d [3] | IL-6 Mean [4, 10] | IL-10 Mean [4, 10] | TNFα Mean [4, 10] | IL-6 Mean [4, 11] | IL-10 Mean [4, 11] | TNFα Mean [4, 11] | BC displacement ratio [5] [%] | inhibition rate of FITC-labeled LPS binding to RAW 264.7 cells [6] [%] | antibacterial activity after heat treatment (inhibition zone diameter), Mean [7, 12] | antibacterial activity after heat treatment (inhibition zone diameter), Mean [7, 13] | antibacterial activity after heat treatment (inhibition zone diameter), Mean [7, 14] | antibacterial activity after heat treatment (inhibition zone diameter), Mean [7, 15] | densitometric analysis of p-p65/p65 ratio [9] | inhibition of LPS-induced translocation of the NF-κB p-p65 subunit [9] [%] | also measured |
| --- | --- | --- | --- | --- | --- | --- | --- | --- | --- | --- | --- | --- | --- | --- | --- | --- | --- | --- | --- | --- | --- |
| CC(C)[C@@H]1NC(=O)CNC(=O)[C@H](CC(N)=O)NC(=O)[C@H](CCCNC(=N)N)NC(=O)[C@H](Cc2ccc(O)cc2)NC(=O)[C@H](C(C)C)NC(=O)[C@@H](NC(=O)[C@@H](NC(=O)[C@H](CC(N)=O)NC(=O)[C@H](Cc2c[nH]c3ccccc23)NC(=O)[C@H](C)NC(=O)[C@H](Cc2ccccc2)NC(=O)CNC(=O)[C@H](CO)NC(=O)CNC(=O)CNC(=O)CNC(=O)CNC(=O)[C@H](CCCCN)NC(=O)[C@H](Cc2ccccc2)NC(=O)[C@H](Cc2ccccc2)NC(=O)[C@H](CO)NC(=O)[C@H](C)NC(=O)[C@H](CCCNC(=N)N)NC(=O)[C@@H](NC(=O)[C@H](CCCCN)NC(=O)[C@H](Cc2c[nH]c3ccccc23)NC(=O)[C@H](CCCNC(=N)N)NC(=O)CNC(=O)[C@H](CCC(N)=O)NC(=O)[C@@H](NC(=O)[C@@H](N)CCCNC(=N)N)C(C)C)C(C)C)C(C)C)CSSC[C@@H](C(=O)N[C@@H](Cc2c[nH]cn2)C(=O)N[C@@H](CCCNC(=N)N)C(=O)N[C@@H](CCCNC(=N)N)C(=O)N[C@@H](C)C(=O)N[C@@H](CC(N)=O)C(=O)O)NC(=O)[C@H](C(C)C)NC(=O)[C@H](CCCNC(=N)N)NC1=O [G6] (H-RVQGRWKVRASFFKGGGGSGFAWNVCVYRNGVRVCHRRAN-OH; disulfide 26-35) | 0.9933 | promoted LPS-induced IκBα levels | 0.1248 | 88.2% | partial alleviation of tissue swelling and injury | no pathological changes | 280.633 | 106.633 | 481.5 | 352.733 | 142.667 | 599.567 | 100 | 44.3 | 1.451 | 1.421 | 1.5 | 1.473 | 0.7685 | 25.3 | antibacterial activity after heat treatment (inhibition zone diameter), Mean [7, 16]: 1.413; killing selectivity of peptides ([8]; time 0 min): 0.9569; killing selectivity of peptides ([8]; time 1 min): 0.5118; killing selectivity of peptides ([8]; time 3 min): 0.1311 |
| CC(C)[C@@H]1NC(=O)CNC(=O)[C@H](CC(N)=O)NC(=O)[C@H](CCCNC(=N)N)NC(=O)[C@H](Cc2ccc(O)cc2)NC(=O)[C@H](C(C)C)NC(=O)[C@@H](NC(=O)[C@@H](NC(=O)[C@H](CC(N)=O)NC(=O)[C@H](Cc2c[nH]c3ccccc23)NC(=O)[C@H](C)NC(=O)[C@H](Cc2ccccc2)NC(=O)CN)C(C)C)CSSC[C@@H](C(=O)N[C@@H](Cc2c[nH]cn2)C(=O)N[C@@H](CCCNC(=N)N)C(=O)N[C@@H](CCCNC(=N)N)C(=O)N[C@@H](C)C(=O)N[C@@H](CC(N)=O)C(=O)O)NC(=O)[C@H](C(C)C)NC(=O)[C@H](CCCNC(=N)N)NC1=O [N6] (H-GFAWNVCVYRNGVRVCHRRAN-OH; disulfide 7-16; N-terminus and C-terminus assumed) | 1.158 | promoted LPS-induced IκBα levels | 0.9271 | 16.1% | partial alleviation of tissue swelling and injury | no pathological changes | 279.833 | 106.233 | 479.8 | 303.4 | 118.033 | 495.967 | 90.5 | 8 | 1.935 | 1.912 | 1.95 | 1.964 | 0.9793 | 5 | antibacterial activity after heat treatment (inhibition zone diameter), Mean [7, 16]: 1.917; killing selectivity of peptides ([8]; time 0 min): 0.9569; killing selectivity of peptides ([8]; time 1 min): 0.9093; killing selectivity of peptides ([8]; time 3 min): 0.8204; killing selectivity of peptides ([8]; time 5 min): 0.6732 |
| polymyxin B [PMB] | 1.0324 | promoted LPS-induced IκBα levels | 1.579 | moderately promoted the ERK1/2 phosphorylation |  |  | 311.767 | 122.2 | 546.867 | 278.7 | 116.9 | 447.633 | 83.7 | 13.5 |  |  |  |  | 0.01553 | 98.4 |  |
